Columns and labels:
His-Brd3(20-477) = His-Brd3(20-477) (Homo sapiens (Human), UniProt Q15059); experiment: TR-FRET in-vitro binding assay for BRD3; conditions: biochemical
Method in brief: (§1)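 His-tagged BRD2(60-472), BRD3(20-477) or BRD4(44-477), 45 nM in dispensing solution, with 60 nM tetra-acetylated histone H4 peptide (AcK5/8/12/16) in dispensing solution; HEPES pH 7.5, 50 mM NaCl, 0.1% BSA, 30 °C, 35 min. Eu-anti-His6 antibody plus streptavidin-APC added for TR-FRET read-out; 8-point compound dilutions.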

His-Brd4(44-477) = His-Brd4(44-477) (Homo sapiens (Human), UniProt O60885); experiment: TR-FRET in-vitro binding assay for BRD4; conditions: biochemical
Method in brief: as §1

THP-1 cells = experiment: Cell growth inhibition assay (CellTiter-Glo), THP-1; assay type: cell-based; conditions: Homo sapiens, read-out: THP-1 TGI
Method in brief: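 Dose-response over 3-fold dilutions from 10 μM; 0.1% DMSO control. Endpoint: CellTiter-Glo ATP signal, background-subtracted and day 0-corrected.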

His-Brd2(60-472) = His-Brd2(60-472) (Homo sapiens (Human), UniProt P25440); experiment: TR-FRET in-vitro binding assay for BRD2; conditions: biochemical
Sequence of His-Brd2(60-472) (P25440 60-472): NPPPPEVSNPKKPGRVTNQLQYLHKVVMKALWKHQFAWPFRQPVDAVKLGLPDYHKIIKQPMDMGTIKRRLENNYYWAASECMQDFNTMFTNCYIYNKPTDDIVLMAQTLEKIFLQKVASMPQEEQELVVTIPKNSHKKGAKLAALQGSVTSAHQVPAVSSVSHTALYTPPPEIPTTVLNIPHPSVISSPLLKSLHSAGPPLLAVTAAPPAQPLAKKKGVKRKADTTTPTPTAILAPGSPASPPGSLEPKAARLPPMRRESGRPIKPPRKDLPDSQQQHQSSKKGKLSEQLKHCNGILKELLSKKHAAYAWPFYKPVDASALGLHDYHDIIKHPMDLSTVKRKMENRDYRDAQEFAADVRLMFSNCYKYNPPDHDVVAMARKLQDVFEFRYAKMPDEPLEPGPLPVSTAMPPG
Method in brief: as §1

Sequence of His-Brd3(20-477) (Q15059 20-477): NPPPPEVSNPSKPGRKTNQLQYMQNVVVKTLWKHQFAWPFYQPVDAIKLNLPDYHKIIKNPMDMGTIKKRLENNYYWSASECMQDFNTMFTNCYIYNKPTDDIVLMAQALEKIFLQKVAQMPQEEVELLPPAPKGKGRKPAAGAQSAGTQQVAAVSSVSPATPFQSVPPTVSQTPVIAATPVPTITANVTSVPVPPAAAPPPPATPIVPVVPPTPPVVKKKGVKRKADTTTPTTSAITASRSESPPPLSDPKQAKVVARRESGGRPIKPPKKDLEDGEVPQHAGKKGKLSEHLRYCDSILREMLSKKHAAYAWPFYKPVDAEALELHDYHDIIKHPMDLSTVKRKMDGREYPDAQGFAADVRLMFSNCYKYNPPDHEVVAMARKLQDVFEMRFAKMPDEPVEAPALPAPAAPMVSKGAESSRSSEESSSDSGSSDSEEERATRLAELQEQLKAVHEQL

Row | IC50 (His-Brd3(20-477)) [µM] | IC50 (His-Brd4(44-477)) [µM] | IC50 (His-Brd2(60-472)) [µM] | Structure (SMILES) | IC (total growth inhibition) (THP-1 cells) [µM]
1 | 0.13 | 0.17 | 0.18 | Cc1cc(N2C(=O)c3nn(C(=O)N(C)C)c(C)c3C2c2ccc(Cl)cc2)cn(C)c1=O (centres unmarked) [Example 141, 4-(4-chlorophenyl)-5-(1,5-dimethyl-6-oxo-1,6-dihydropyridin-3-yl)-N,N,3-trimethyl-6-oxo-5,6-dihydropyrrolo[3,4-c]pyrazole-2(4H)-carboxamide] | 0.527
2 | 0.27 | 0.3 | 0.33 | CNC(=O)n1nc(C)c2c1C(=O)N(c1cc(C)c(=O)n(C)c1)C2c1ccc(Cl)cc1 (centres unmarked) [Example 143, 4-(4-chlorophenyl)-5-(1,5-dimethyl-6-oxo-1,6-dihydropyridin-3-yl)-N,3-dimethyl-6-oxo-5,6-dihydropyrrolo[3,4-c]pyrazole-1(4H)-carboxamide] | 0.621
3 | 0.19 | 0.14 | 0.18 | CNC(=O)n1nc(C)c2c1C(=O)N(c1cc(C)c3nnc(C)n3c1)C2c1ccc(Cl)cc1 (centres unmarked) [Example 145, 4-(4-chlorophenyl)-5-(3,8-dimethyl-[1,2,4]triazolo[4,3-a]pyridin-6-yl)-N,3-dimethyl-6-oxo-5,6-dihydropyrrolo[3,4-c]pyrazole-1(4H)-carboxamide] | 0.335
4 | 0.16 | 0.27 | 0.22 | CCc1c2c(nn1C(=O)N(C)C)C(=O)N(c1cc(C)c(=O)n(C)c1)C2c1ccc(Cl)cc1 (centres unmarked) [Example 148, 4-(4-chlorophenyl)-5-(1,5-dimethyl-6-oxo-1,6-dihydropyridin-3-yl)-3-ethyl-N,N-dimethyl-6-oxo-5,6-dihydropyrrolo[3,4-c]pyrazole-2(4H)-carboxamide] | 0.372
5 | 0.039 | 0.03 | 0.036 | Cc1nn(C(=O)N(C)C)c2c1[C@@H](c1ccc(Cl)cc1)N(c1cc(C)c3nnc(C)n3c1)C2=O [Example 149, (R)-4-(4-chlorophenyl)-5-(3,8-dimethyl-[1,2,4]triazolo[4,3-a]pyridin-6-yl)-N,N,3-trimethyl-6-oxo-5,6-dihydropyrrolo[3,4-c]pyrazole-1(4H)-carboxamide] | 0.138
6 | 0.12 | 0.11 | 0.14 | Cc1cc(N2C(=O)c3nn(C(=O)N(C)C)c(C)c3[C@H]2c2ccc(Cl)cc2)cn2c(C)nnc12 [Example 150, (R)-4-(4-chlorophenyl)-5-(3,8-dimethyl-[1,2,4]triazolo[4,3-a]pyridin-6-yl)-N,N,3-trimethyl-6-oxo-5,6-dihydropyrrolo[3,4-c]pyrazole-2(4H)-carboxamide] | 0.211
7 | 0.16 | 0.13 | 0.15 | Cc1nn(C2CNC2)c2c1C(c1ccc(Cl)cc1)N(c1cc(C)c3nnc(C)n3c1)C2=O (centres unmarked) [Example 151, 1-(azetidin-3-yl)-4-(4-chlorophenyl)-5-(3,8-dimethyl-[1,2,4]triazolo[4,3-a]pyridin-6-yl)-3-methyl-4,5-dihydropyrrolo[3,4-c]pyrazol-6(1H)-one] | 1.33
8 | 0.11 | 0.078 | 0.1 | Cc1cc(N2C(=O)c3nn(C4CNC4)c(C)c3C2c2ccc(Cl)cc2)cn2c(C)nnc12 (centres unmarked) [Example 152, 2-(azetidin-3-yl)-4-(4-chlorophenyl)-5-(3,8-dimethyl-[1,2,4]triazolo[4,3-a]pyridin-6-yl)-3-methyl-4,5-dihydropyrrolo[3,4-c]pyrazol-6(2H)-one] | 4
9 | 0.13 | 0.14 | 0.16 | CC(=O)N1CC(n2nc(C)c3c2C(=O)N(c2cc(C)c(=O)n(C)c2)C3c2ccc(Cl)cc2)C1 (centres unmarked) [Example 153, 1-(1-acetylazetidin-3-yl)-4-(4-chlorophenyl)-5-(1,5-dimethyl-6-oxo-1,6-dihydropyridin-3-yl)-3-methyl-4,5-dihydropyrrolo[3,4-c]pyrazol-6(1H)-one] | 0.515
10 | 0.12 | 0.091 | 0.12 | CC(=O)N1CC(n2nc(C)c3c2C(=O)N(c2cc(C)c4nnc(C)n4c2)C3c2ccc(Cl)cc2)C1 (centres unmarked) [Example 154, 1-(1-acetylazetidin-3-yl)-4-(4-chlorophenyl)-5-(3,8-dimethyl-[1,2,4]triazolo[4,3-a]pyridin-6-yl)-3-methyl-4,5-dihydropyrrolo[3,4-c]pyrazol-6(1H)-one] | 0.538
11 | 0.076 | 0.087 | 0.08 | CCOC(=O)N1CC(n2nc(C)c3c2C(=O)N(c2cc(C)c(=O)n(C)c2)C3c2ccc(Cl)cc2)C1 (centres unmarked) [Example 155, Ethyl 3-(4-(4-chlorophenyl)-5-(1,5-dimethyl-6-oxo-1,6-dihydropyridin-3-yl)-3-methyl-6-oxo-5,6-dihydropyrrolo[3,4-c]pyrazol-1(4H)-yl)azetidine-1-carboxylate] | 0.305
12 | 0.077 | 0.049 | 0.059 | CCOC(=O)N1CC(n2nc(C)c3c2C(=O)N(c2cc(C)c4nnc(C)n4c2)C3c2ccc(Cl)cc2)C1 (centres unmarked) [Example 156, Ethyl 3-(4-(4-chlorophenyl)-5-(3,8-dimethyl-[1,2,4]triazolo[4,3-a]pyridin-6-yl)-3-methyl-6-oxo-5,6-dihydropyrrolo[3,4-c]pyrazol-1(4H)-yl)azetidine-1-carboxylate] | 0.143
13 | 0.2 | 0.077 | 0.077 | Cc1nn(C2CN(C)C2)c2c1C(c1ccc(Cl)cc1)N(c1cc(C)c3nnc(C)n3c1)C2=O (centres unmarked) [Example 157, 4-(4-chlorophenyl)-5-(3,8-dimethyl-[1,2,4]triazolo[4,3-a]pyridin-6-yl)-3-methyl-1-(1-methylazetidin-3-yl)-4,5-dihydropyrrolo[3,4-c]pyrazol-6(1H)-one] | 0.312
14 | 0.093 | 0.082 | 0.098 | Cc1cc(N2C(=O)c3nn(C4CN(C)C4)c(C)c3C2c2ccc(Cl)cc2)cn2c(C)nnc12 (centres unmarked) [Example 158, 4-(4-chlorophenyl)-5-(3,8-dimethyl-[1,2,4]triazolo[4,3-a]pyridin-6-yl)-3-methyl-2-(1-methylazetidin-3-yl)-4,5-dihydropyrrolo[3,4-c]pyrazol-6(2H)-one] | 0.298
15 | 0.045 | 0.04 | 0.042 | Cc1nn(C[C@H](O)C(F)(F)F)c2c1[C@@H](c1ccc(Cl)cc1)N(c1cc(C)c3nnc(C)n3c1)C2=O [Example 167, (R)-4-(4-chlorophenyl)-5-(3,8-dimethyl-[1,2,4]triazolo[4,3-a]pyridin-6-yl)-3-methyl-1-((S)-3,3,3-trifluoro-2-hydroxypropyl)-4,5-dihydropyrrolo[3,4-c]pyrazol-6(1H)-one] | 0.117

Row | Structure (SMILES) | IC50 (His-Brd3(20-477)) [µM] | IC50 (His-Brd4(44-477)) [µM] | IC50 (His-Brd2(60-472)) [µM] | IC (total growth inhibition) (THP-1 cells) [µM]
16 | Cc1nn(C2CN(C)C2)c2c1C(c1ccc(Cl)cc1)N(c1cc(C)c(=O)n(C)c1)C2=O (centres unmarked) [Example 140, 4-(4-chlorophenyl)-5-(1,5-dimethyl-6-oxo-1,6-dihydropyridin-3-yl)-3-methyl-1-(1-methylazetidin-3-yl)-4,5-dihydropyrrolo[3,4-c]pyrazol-6(1H)-one] | 0.44 | 0.32 | 0.42 | 0.925
17 | Cc1nn(C(=O)N(C)C)c2c1C(c1ccc(Cl)cc1)N(c1cc(C)c(=O)n(C)c1)C2=O (centres unmarked) [Example 142, 4-(4-chlorophenyl)-5-(1,5-dimethyl-6-oxo-1,6-dihydropyridin-3-yl)-N,N,3-trimethyl-6-oxo-5,6-dihydropyrrolo[3,4-c]pyrazole-1(4H)-carboxamide] | 0.15 | 0.19 | 0.18 | 0.448
